Columns and labels:
Assay type in all cases: cell-based
[1] = tested on: MCF-7 breast cancer cells; assay: cells; conditions: Homo sapiens, MCF7; 48 h treatment; read-out: MTT IC50 MCF-7
Protocol: (§1) The cell lines were obtained from American Type Culture Collection (ATCC, Manassas, VA, USA) and were cultured at 37 °C in the presence of 5% CO2 in the atmosphere. […] The cell’s morphology was examined under a Nikon Eclipse Ti inverted phase contrast microscope (Nikon, Tokyo, Japan). The authenticity of tested cell lines was verified by short tandem repeat (STR) genotyping in the Department of Forensic Medicine (Medical University of Lublin, Lublin, Poland).
(§2) Cell viability based on metabolic activity was evaluated with the MTT colorimetric test based on the ability of viable cells to cause the transformation of tetrazolium salts MTT (3-[4,5-dimethylthiazol-2-yl]-2,5)diphenyltetrazolium bromide) into purple formazan, by cellular dehydrogenases. The cells were seeded into 96-well plates at a concentration of 2 × 10^5 cells/mL. […] Doxorubicin was used for comparison as the standard chemotherapeutic agent used in breast cancer treatment. After 48 h of incubation cell cultures were supplemented with 20 µL of 5 mg/mL MTT (Thermofisher, Waltham, MA, USA) stock in PBS (Corning, NY, USA), and the incubation was continued for 4 h at 37 °C. Next, the medium with MTT was removed, and obtained crystals were dissolved in 200 µL of DMSO (dimethyl sulfoxide, Avantor, Gliwice, Poland). The solution absorbency was measured at 570 nm, using a PowerWave™ xs microplate spectrophotometer (BioTek Instruments, Winooski, VT, USA). The experiment was performed three times with three replicates for each concentration of tested compounds.

[2] = tested on: MDA-MB-231 breast cancer cells; assay: cells; conditions: Homo sapiens, MDA-MB-231; 48 h treatment; read-out: MTT IC50 MDA-MB-231
Protocol: as §1, §2

[3] = tested on: BJ normal skin fibroblast; assay: MTT cytotoxicity test, BJ normal fibroblasts; conditions: Homo sapiens, 48 h treatment
Protocol: The studies were conducted on two breast cancer cell lines—MCF-7 (ER+PR+/HER2-negative) and MDA-MB-231 (ER/PR/HER2-negative) and human normal fibroblast cell line BJ. The cell lines were obtained from American Type Culture Collection (ATCC, Manassas, VA, USA) and were cultured at 37 °C in the presence of 5% CO2 in the atmosphere. The culture media (Eagle’s Minimum Essential Medium for MCF-7 and BJ, Leibovitz’s L-15 Medium for MDA-MB-231, Corning, NY, USA), was supplemented with 10% fetal bovine serum. The cell’s morphology was examined under a Nikon Eclipse Ti inverted phase contrast microscope (Nikon, Tokyo, Japan). The authenticity of tested cell lines was verified by short tandem repeat (STR) genotyping in the Department of Forensic Medicine (Medical University of Lublin, Lublin, Poland).
Cell viability based on metabolic activity was evaluated with the MTT colorimetric test based on the ability of viable cells to cause the transformation of tetrazolium salts MTT (3-[4,5-dimethylthiazol-2-yl]-2,5)diphenyltetrazolium bromide) into purple formazan, by cellular dehydrogenases. The cells were seeded into 96-well plates at a concentration of 2 × 10^5 cells/mL. Once 70–80% confluency was reached, tested compounds were added: ADS10310 and ADS1017 in concentrations ranging from 1 to 250 µM or DMSO as the vehicle in control cultures for the next 48 h (max. DMSO concentration <0.5%). Doxorubicin was used for comparison as the standard chemotherapeutic agent used in breast cancer treatment. After 48 h of incubation cell cultures were supplemented with 20 µL of 5 mg/mL MTT (Thermofisher, Waltham, MA, USA) stock in PBS (Corning, NY, USA), and the incubation was continued for 4 h at 37 °C. […] The solution absorbency was measured at 570 nm, using a PowerWave™ xs microplate spectrophotometer (BioTek Instruments, Winooski, VT, USA). […] IC50 values were determined using the AAT Bioquest IC50 calculator (AAT Bioquest, Inc. Quest Graph™ EC50 Calculator. https://www.aatbio.com/tools/ec50-calculator) (accessed on 6 September 2022).

SMILES: COc1cccc2c1C(=O)c1c(O)c3c(c(O)c1C2=O)C[C@@](O)(C(=O)CO)C[C@@H]3O[C@H]1C[C@H](N)[C@H](O)[C@H](C)O1 [Doxorubicin, reference compound]
- IC50 [1]: 2120 nM
- IC50 [2]: 1850 nM
- IC50 [3]: 4870 nM

Reference: paper PMC10223552 (Pharmaceuticals, 2023)
